Patent US6492397B1, “N-arylheteroarylalkyl imidazol-2-one compounds for treatment of arteriosclerosis” (Pharmacia Corporation, priority 1991, dated 2002)
Where two headings read alike, the source gives them in different places.

How the values were obtained:
[1] = molecular target: smooth muscle angiotensin II receptor; test: Assay A: Angiotensin II Binding Activity (125I-angiotensin II displacement, rat uterine membrane preparation); settings: 50% displacement of specifically bound 125I-AII, rat uterine membranes, 25° C., 60 min
Protocol: Assay A: Angiotensin II Binding Activity
Compounds of the invention were tested for ability to bind to the smooth muscle angiotensin II receptor using a rat uterine membrane preparation. […] Other chemicals were obtained from Sigma Chemical Co. This assay was carried out according to the method of Douglas et al [Endocrinology, 106, 120-124 (1980)]. Rat uterine membranes were prepared from fresh tissue. All procedures were carried out at 4° C. Uteri were stripped of fat and homogenized in phosphate-buffered saline at pH 7.4 containing 5 mM EDTA. The homogenate was centrifuged at 1500×g for 20 min., and the supernatant was recentrifuged at 100,000×g for 60 min. The pellet was resuspended in buffer consisting of 2 mM EDTA and 50 mM Tris-HCl (pH 7.5) to a final protein concentration of 4 mg/ml. Assay tubes were charged with 0.25 ml of a solution containing 5 mM MgCl2, 2 mM EDTA, 0.5% bovine serum albumin, 50 mM Tris-HCl, pH 7.5 and […] (approximately 10^5 cpm) in the absence or in the presence of unlabelled ligand. The reaction was initiated by the addition of membrane protein and the mixture was incubated at 25° C. for 60 min. The incubation was terminated with ice-cold 50 mM Tris-HCl (pH 7.5) and the mixture was filtered to separate membrane-bound labelled peptide from the free ligand. The incubation tube and filter were washed with ice-cold buffer. Filters were assayed for radioactivity in a Micromedic gamma counter. Nonspecific binding was defined as binding in the presence of 10 μM of unlabelled AII. Specific binding was calculated as total binding minus nonspecific binding. […] Binding data were analyzed by a nonlinear least-squares curve fitting program.

[2] = system: rabbit aortic rings; test: Assay B: In Vitro Vascular Smooth Muscle Response for AII (antagonist activity in rabbit aortic rings); type: cell-based; settings: Oryctolagus cuniculus, test antagonist at 10^-5 M, AII contraction, read-out: Assay B pA2 (converted)
Protocol: Assay B: In Vitro Vascular Smooth Muscle-Response for AII
The compounds of the invention were tested for antagonist activity in rabbit aortic rings. Male New Zealand white rabbits (2-2.5 kg) were sacrificed using an overdose of pentobarbital and exsanguinated via the carotid arteries. The thoracic aorta was removed, cleaned of adherent fat and connective tissue and then cut into 3-mm ring segments. The endothelium was removed from the rings by gently sliding a rolled-up piece of filter paper into the vessel lumen. The rings were then mounted in a water-jacketed tissue bath, maintained at 37° C., between moveable and fixed ends of a stainless steel wire with the moveable end attached to an FT03 Grass transducer coupled to a Model 7D Grass Polygraph for recording isometric force responses. The bath was filled with 20 ml of oxygenated (95% oxygen/5% carbon dioxide) Krebs solution of the following composition (mM): 130 NaCl, 15 NaHCO3, […], 1.2 NaH2PO4, 1.2 MgSO4, 2.5 CaCl2, and 11.4 glucose. The preparations were equilibrated for one hour before approximately one gram of passive tension was placed on the rings. Angiotensin II concentration-response curves were then recorded (3×10^−10 to 1×10^−5 M). Each concentration of AII was allowed to elicit its maximal contraction, and then AII was washed out repeatedly for 30 minutes before rechallenging with a higher concentration of AII. Aorta rings were exposed to the test antagonist at 10^−5 M for 5 minutes before challenging with AII. Adjacent segments of the same aorta ring were used for all concentration-response curves in the presence or absence of the test antagonist. The effectiveness of the test compound was expressed in terms of pA2 values and were calculated according to H. O. Schild [Br. J. Pharmacol. Chemother., 2,189-206 (1947)]. The PA2 value is the concentration of the antagonist which increases the EC50 value for AII by a factor of two. Each test antagonist was evaluated in aorta rings from two rabbits.

[3] = system: pressor response to AII; test: Assay C: In Vivo Intragastric Pressor Assay Response for AII Antagonists; design: species or system rat; settings: for Assay C Duration: Dose: 3 mg/kg (i.g.), Sprague-Dawley rats, AII challenges up to 180 minutes after gavage; for inhibition in vivo at 3 mg/kg: Rattus norvegicus, po
Protocol: Assay C: In Vivo Intragastric Pressor Assay Response for AII Antagonists
Male Sprague-Dawley rats weighing 225-300 grams were anesthetized with methohexital (30 mg/kg, i.p.) and catheters were implanted into the femoral artery and vein. The catheters were tunneled subcutaneously to exit dorsally, posterior to the head and between the scapulae. The catheters were filled with heparin (1000 units/ml of saline). The rats were returned to their cage and allowed regular rat chow and water ad libitum. After full recovery from surgery (3-4 days), rats were placed in Lucite holders and the arterial line was connected to a pressure transducer. Arterial pressure was recorded on a Gould polygraph (mmHg). Angiotensin II was administered as a 30 ng/kg bolus via the venous catheter delivered in a 50 μl volume with a 0.2 ml saline flush. The pressor response in mm Hg was measured by the difference from pre-injection arterial pressure to the maximum pressure achieved. The AII injection was repeated every 10 minutes until three consecutive injections yielded responses within 4 mmHg of each other. These three responses were then averaged and represented the control response to AII. The test compound was suspended in 0.5% methylcellulose in water and was administered by gavage. The volume administered was 2 ml/kg body weight. The standard dose was 3 mg/kg. Angiotensin II bolus injections were given at 30, 45, 60, 75, 120, 150, and 180 minutes after gavage. The pressor response to AII was measured at each time point. The rats were then returned to their cage for future testing. A minimum of 3 days was allowed between tests. Percent inhibition was calculated for each time point following gavage by the following formula: [(Control Response−Response at time point)/Control Response]×100.

[4] = first value of the pair (aorta rings from two rabbits)
[5] = second value of the pair (aorta rings from two rabbits)

IC50 [1] [nM] | Compound | Kb [2, 4] [nM] | Kb [2, 5] [nM] | Assay C Duration [3] [min] | inhibition in vivo at 3 mg/kg [3] [%]
9.2 | CCCCc1cn(CCC(C)(C)C)c(=O)n1Cc1ccc(-c2ccccc2-c2nnn[nH]2)nc1 [Example 19, 1-(3,3-dimethylbutyl)-4-butyl-1,3-dihydro-3-[[6-[2-(1H-tetrazol-5-yl)phenyl]-3-pyridinyl]methyl]-2H-imidazol-2-one] | 3.72 | 4.37 | >180 | 50
23 | CCCCc1cn(CCC2=CCCC2)c(=O)n1Cc1ccc(-c2ccccc2-c2nnn[nH]2)nc1 [Example 28, 1-[2-(cyclopenten-1-yl)ethyl]-4-butyl-1,3-dihydro-3-[[6-[2-(1H-tetrazol-5-yl)phenyl]-3-pyridinyl]methyl]-2H-imidazol-2-one] | 1.41 | 5.62 | 180 | 15
65 | CCCCc1cn(C23CC4CC(CC(C4)C2)C3)c(=O)n1Cc1ccc(-c2ccccc2-c2nnn[nH]2)nc1 [Example 30, 1-(1-adamantyl)-4-butyl-1,3-dihydro-3-[[6-[2-(1H-tetrazol-5-yl)phenyl]-3-pyridinyl]methyl]-2H-imidazol-2-one] | – | – | – | –
20 | CCCCc1cn(C(C)C)c(=O)n1Cc1ccc(-c2ccccc2-c2nnn[nH]2)nc1 [Example 16, 1-isopropyl-4-butyl-1,3-dihydro-3-[[6-[2-(1H-tetrazol-5-yl)phenyl]-3-pyridinyl]methyl]-2H-imidazol-2-one] | 3.8 | 1.7 | >180 | 45
18 | CCCCc1cn(CCC2CCCC2)c(=O)n1Cc1ccc(-c2ccccc2-c2nnn[nH]2)nc1 [Example 27, 1-(2-cyclopentylethyl)-4-butyl-1,3-dihydro-3-[[6-[2-(1H-tetrazol-5-yl)phenyl]-3-pyridinyl]methyl]-2H-imidazol-2-one] | 1.82 | 2.14 | >180 | 35
51 | CCCCc1cn(C2C3CC4CC(C3)CC2C4)c(=O)n1Cc1ccc(-c2ccccc2-c2nnn[nH]2)nc1 (centres unmarked) [Example 29, 1-(2-adamantyl)-4-butyl-1,3-dihydro-3-[[6-[2-(1H-tetrazol-5-yl)phenyl]-3-pyridinyl]methyl]-2H-imidazol-2-one] | – | – | – | –
99 | CCCCc1cn(C2CCCC2)c(=O)n1Cc1ccc(-c2ccccc2-c2nnn[nH]2)nc1 [Example 23, 1-cyclopentyl-4-butyl-1,3-dihydro-3-[[6-[2-(1H-tetrazol-5-yl)phenyl]-3-pyridinyl]methyl]-2H-imidazol-2-one] | 0.912 | 2.51 | – | –

More lines, now with the values behind:

Compound | IC50 [1] [nM] | Kb [2, 4] [nM] | Kb [2, 5] [nM] | Assay C Duration [3] [min] | inhibition in vivo at 3 mg/kg [3] [%]
CCCCn1cc(CCC(C)C)n(Cc2ccc(-c3ccccc3-c3nnn[nH]3)nc2)c1=O [Example 5, 1-butyl-4-isopentyl-1,3-dihydro-3-[[6-[2-(1H-tetrazol-5-yl)phenyl]-3-pyridinyl]methyl]-2H-imidazol-2-one] | 29 | 2.29 | 5.89 | – | –
CCCn1cc(CC(C)C)n(Cc2ccc(-c3ccccc3-c3nnn[nH]3)nc2)c1=O [Example 3, 1-propyl-4-isobutyl-1,3-dihydro-3-[[6-[2-(1H-tetrazol-5-yl)phenyl]-3-pyridinyl]methyl]-2H-imidazol-2-one] | 770 | 34.7 | 112 | – | –
CCCCc1cn(-c2ccccc2C(C)C)c(=O)n1Cc1ccc(-c2ccccc2-c2nnn[nH]2)nc1 [Example 35, 1-(2-isopropylphenyl)-4-butyl-1,3-dihydro-3-[[6-[2-(1H-tetrazol-5-yl)phenyl]-3-pyridinyl]methyl]-2H-imidazol-2-one] | 14 | – | – | – | –
CCCCc1cn(CCc2ccccc2)c(=O)n1Cc1ccc(-c2ccccc2-c2nnn[nH]2)nc1 [Example 26, 1-(2-phenylethyl)-4-butyl-1,3-dihydro-3-[[6-[2-(1H-tetrazol-5-yl)phenyl]-3-pyridinyl]methyl]-2H-imidazol-2-one] | 3.6 | 4.37 | 3.63 | 180 | 15
CCCCc1cn(-c2ccccc2C)c(=O)n1Cc1ccc(-c2ccccc2-c2nnn[nH]2)nc1 [Example 33, 1-(2-methylphenyl)-4-butyl-1,3-dihydro-3-[[6-[2-(1H-tetrazol-5-yl)phenyl]-3-pyridinyl]methyl]-2H-imidazol-2-one] | 9.4 | – | – | >180 | 65
CCCc1cn(CCC)c(=O)n1Cc1ccc(-c2ccccc2-c2nnn[nH]2)nc1 [Example 2, 1,4-dipropyl-1,3-dihydro-3-[[6-[2-(1H-tetrazol-5-yl)phenyl]-3-pyridinyl]methyl]-2H-imidazol-2-one] | 38 | 7.41 | 39.8 | 180 | 25
CCCCn1cc(C2CCCCC2)n(Cc2ccc(-c3ccccc3-c3nnn[nH]3)nc2)c1=O [Example 7, 1-butyl-4-cyclohexyl-1,3-dihydro-3-[[6-[2-(1H-tetrazol-5-yl)phenyl]-3-pyridinyl]methyl]-2H-imidazol-2-one] | 81 | 17.8 | 17.4 | 180 | 10
CCCCc1cn(-c2ccccc2OC)c(=O)n1Cc1ccc(-c2ccccc2-c2nnn[nH]2)nc1 [Example 34, 1-(2-methoxyphenyl)-4-butyl-1,3-dihydro-3-[[6-[2-(1H-tetrazol-5-yl)phenyl]-3-pyridinyl]methyl]-2H-imidazol-2-one] | 9 | – | – | – | –
CCCCc1cn(-c2ccccc2)c(=O)n1Cc1ccc(-c2ccccc2-c2nnn[nH]2)nc1 [Example 31, 1-phenyl-4-butyl-1,3-dihydro-3-[[6-[2-(1H-tetrazol-5-yl)phenyl]-3-pyridinyl]methyl]-2H-imidazol-2-one] | 45 | – | – | – | –
CCCCn1cc(CC(C)C)n(Cc2ccc(-c3ccccc3-c3nnn[nH]3)nc2)c1=O [Example 4, 1-butyl-4-isobutyl-1,3-dihydro-3-[[6-[2-(1H-tetrazol-5-yl)phenyl]-3-pyridinyl]methyl]-2H-imidazol-2-one] | 140 | 19.1 | 81.3 | – | –
CCCCc1cn(-c2c(C)cccc2C)c(=O)n1Cc1ccc(-c2ccccc2-c2nnn[nH]2)nc1 [Example 38, 1-(2,6-dimethylphenyl)-4-butyl-1,3-dihydro-3-[[6-[2-(1H-tetrazol-5-yl)phenyl]-3-pyridinyl]methyl]-2H-imidazol-2-one] | 5 | – | – | – | –
